Counter-ions that a name gives are not always drawn.

The subject of the first test is deep partial thickness cutaneous burn injury, zone of stasis. The test can be described thus: Comb burn model for cutaneous burn. In kind it is in vivo, Sprague-Dawley rats. Particulars: L-propargylglycine 100 mg/kg IP Day 0; Compound 1 20 mg/kg PO once daily; 6-day time course; versus control animals.
Take `CN(N)c1nnn[nH]1` [Compound 1, 5-(1-methylhydrazinyl)-1H-tetrazole]: the “Viability of zones of stasis/interspaces on gross examination (burn progression)” value is listed as “maintain viability”.

The test is the same for the next values; noted with them: within 48-72 hours; less injured versus worse/the same scale.
As to `CN(N)c1nnn[nH]1` [Compound 1, 5-(1-methylhydrazinyl)-1H-tetrazole], the “Blinded photo grading of treated interspaces versus control interspaces” value is recorded as “less injured than controls”.

For another test, the target named is human, mouse or rat recombinant CSE (UniProt P32929). The test can be described thus: CSE In Vitro Assay.
Details: not given
For `CCN(N)c1nnn[nH]1` [Example 2-4], the IC50 (as a rule, the midpoint of a concentration-inhibition curve) was below 10 µM.
The same measure, in the same setting: the value for `CN(N)c1nnn(C)n1` [Example 2-29, 2-methyl-5-(1-methylhydrazinyl)-2H-tetrazole] was above 100 µM.

Staying with this test, now noted: […]; species of enzyme not given.
`N#CCC(N)c1nnn[nH]1` (stereo not shown) [Example 1-1, 3-amino-3-(1H-tetrazol-5-yl)propionitrile dihydrochloride]: the IC50 was above 100 µM.
With `COCCN(N)c1nnn[nH]1` [Example 2-6], the IC50 was in the range of 10 to 100 µM.
Still for that read-out and setting: the value for `NCCCN(N)c1nnn[nH]1` [Example 2-12, 3-(1-(1H-tetrazol-5-yl)hydrazinyl)propan-1-amine dihydrochloride] was below 10 µM.

Still in this test, the particulars now being: recombinant CSE 20 ug/ml, 50 uM PLP, DL-homocysteine substrate, 3 hours 37° C.; species of enzyme not given.
With `C#CC[C@H](N)c1nnn[nH]1` [Example 1-2, (S)-1-(1H-tetrazol-5-yl)-but-3-ynylamine hydrochloride], the IC50 is below 10 µM.
Same read-out and setting: the value for `C#CC[C@H](N)c1noc(=O)[nH]1` [Example 1-3, (S)-3-(1-aminobut-3-ynyl)-1,2,4-oxadiazol-5(4H)-one hydrochloride] was below 10 µM; that for `C#CC[C@H](N)c1ncn[nH]1` [Example 1-4, (S)-1-(1H-1,2,4-triazol-5-yl)but-3-yn-1-amine hydrochloride] was below 10 µM; that for `C#CC[C@H](N)c1nc(C(F)(F)F)n[nH]1` [Example 1-5, (S)-1-(3-(trifluoromethyl)-1H-1,2,4-triazol-5-yl)but-3-yn-1-amine hydrochloride] was above 100 µM.
Same read-out and setting: under `C#CC[C@H](N)c1nc(N)n[nH]1` [Example 1-6, (S)-5-(1-aminobut-3-ynyl)-1H-1,2,4-triazol-3-amine hydrochloride] stands above 100 µM; under `C#CC[C@H](N)C(=O)Nc1nn[nH]n1` [Example 1-7, (S)-2-amino-N-(2H-tetrazol-5-yl)pent-4-ynamide], 10 to 100 µM; under `C#CC[C@H](N)C(=O)NS(=O)(=O)c1ccccc1` [Example 1-8, (S)-2-amino-N-(phenylsulfonyl)pent-4-ynamide hydrochloride], 10 to 100 µM.
Still for that read-out and setting: the value for `C#CC[C@H](N)C(=O)NS(C)(=O)=O` [Example 1-9, (S)-2-amino-N-(methylsulfonyl)pent-4-ynamide hydrochloride] was 10 to 100 µM; that for `CN(C)CCCN(N)c1nnn[nH]1` [Example 2-1, 3-(1-(1H-tetrazol-5-yl)hydrazinyl)-N,N-dimethylpropan-1-amine] was 10 to 100 µM; that for `CN(C)CCN(N)c1nnn[nH]1` [Example 2-2, 2-(1-(1H-tetrazol-5-yl)hydrazinyl)-N,N-dimethylethanamine] was above 100 µM.
Regarding `C#CCN(N)c1nnn[nH]1` [Example 2-3, 5-(1-(prop-2-ynyl)hydrazinyl)-1H-tetrazole], the IC50 was below 10 µM.
Consider `COCCCN(N)c1nnn[nH]1` [Example 2-5], for which the IC50 was above 100 µM.
Still for that read-out and setting: under `CCCN(N)c1nnn[nH]1` [Example 2-7] stands 10 to 100 µM; under `NN(Cc1ccccc1)c1nnn[nH]1` [Example 2-8], above 100 µM.
On the same count and under the same terms, under `CC(C)N(N)c1nnn[nH]1` [Example 2-9] stands above 100 µM.
As to `CC(C)CN(N)c1nnn[nH]1` [Example 2-10], the concentration for half-maximal inhibition (IC50) is above 100 µM.
The same measure, in the same setting: the value for `CN(N)c1nnn[nH]1` [Example 2-11] was below 10 µM; that for `NCCN(N)c1nnn[nH]1` [Example 2-13] was below 10 µM; that for `CNCCN(N)c1nnn[nH]1` [Example 2-14] was 10 to 100 µM.
Still for that read-out and setting: the value for `CNCCCN(N)c1nnn[nH]1` [Example 2-15] was below 10 µM; that for `C(=N\Nc1nnn[nH]1)/c1ccccc1` [Example 2-17, (E)-5-(2-benzylidenehydrazinyl)-1H-tetrazole] was 10 to 100 µM.
As for `CN(C)c1ccc(/C=N/Nc2nnn[nH]2)cc1` [Example 2-18], the IC50 lay in the range of 10 to 100 µM.
Turning to `Clc1ccc(/C=N/Nc2nnn[nH]2)c(Cl)c1` [Example 2-19], the IC50 was above 100 µM.
Regarding `Clc1ccc(/C=N/Nc2nnn[nH]2)cc1` [Example 2-20], the IC50 is below 10 µM.
The same measure, in the same setting: under `CC(C)=NNc1nnn[nH]1` [Example 2-21] stands below 10 µM; under `C/C(=N\Nc1nnn[nH]1)c1ccc(N(C)C)cc1` [Example 2-22], below 10 µM.
The same measure, in the same setting: the value for `C1CCC(=NNc2nnn[nH]2)CC1` [Example 2-23] was below 10 µM; that for `C1CCC(=NNc2nnn[nH]2)C1` [Example 2-24] was below 10 µM.
Still for that read-out and setting: under `CC/C(C)=N/Nc1nnn[nH]1` [Example 2-25] stands below 10 µM.
For `CN(C)c1ccc(C(=O)C/C=N/Nc2nnn[nH]2)cc1` [Example 2-26, (E)-3-(2-(1H-tetrazol-5-yl)hydrazono)-1-(4-(dimethylamino)phenyl)propan-1-one], the IC50 is below 10 µM.
`CN(C)c1ccc(/C=N/N(C)c2nnn[nH]2)cc1` [Example 2-27, (E)-N,N-dimethyl-4-((2-methyl-2-(1H-tetrazol-5-yl)hydrazono)methyl)aniline]: the IC50 lay within 10 to 100 µM.
For the compound `CC(C)=NN(C)c1nnn[nH]1` [Example 2-28, 5-(1-methyl-2-(propan-2-ylidene)hydrazinyl)-1H-tetrazole], the IC50 was below 10 µM.
Turning to `CCN(N)c1ncn[nH]1` [Example 2-31, 5-(1-ethylhydrazinyl)-1H-1,2,4-triazole], the IC50 is above 100 µM.
Regarding `CN(N)c1noc(=O)[nH]1` [Example 2-32, 3-(1-methylhydrazinyl)-1,2,4-oxadiazol-5(4H)-one hydrochloride], the IC50 fell in the range of 10 to 100 µM.
In the case of `CCN(N)C(=O)c1nnn[nH]1` [Example 2-33, N-ethyl-1H-tetrazole-5-carbohydrazide], the IC50 is above 100 µM.
The same measure, in the same setting: the value for `CCN(N)C(=O)Nc1nnn[nH]1` [Example 2-34, 1-ethyl-N-(1H-tetrazol-5-yl)hydrazinecarboxamide] was above 100 µM; that for `CCN(N)C(=O)NS(=O)(=O)c1ccccc1` [Example 2-35, 1-ethyl-N-(phenylsulfonyl)hydrazinecarboxamide] was above 100 µM.

The subject of the next test is obstructive sleep apnea.
Experiment: not given
Particulars: twelve patients; cited from earlier work.
Consider `CN1CCN2c3ncccc3Cc3ccccc3C2C1` (stereo not shown) [mirtazapine], for which the “decrease in occurrence of apnea episodes” value is reported as 50% and the “decrease in sleep disruptions” value is 28%.

Another test deals with hypoxic ventilatory response. As to the kind of experiment: Dose response to dl-propargylglycine (PAG) in the rat hypoxic ventilatory response (HVR) assay. Particulars: PAG 1 or 3 mg/kg IP; FiO2 21% to 10%. In kind it is in vivo, Sprague Dawley rats. The procedure: Male Sprague Dawley rats weighing 343±17 g (Mean±SD); weight range 316-381 g, were obtained from Harlan Laboratories and maintained on a 12 hour light:dark cycle (6 am lights on) with food and water ad libitum.
DSI: Rat unrestrained whole body plethysmography chamber (˜8″ diameter plexiglass), ACQ 7700 Acquisition Interface, Validyne DP45 low range differential pressure transducers, Ponemah software.
dl-Propargyl Glycine (PAG) was obtained from Sigma (Cat #P7888; Lot#BCBD1765V) and solubilized in 0.9% NaCl. Drugs were prepared fresh on the day of use.
Test compounds were administered via the intraperitoneal route at a dose volume of 3 mUkg.
Animals were pre-habituated to the test environment on 3 separate 1-hour periods prior to the test day. Following administration of test compounds animals were placed inside the whole body plethysmography chamber. The animals were allowed to acclimate to the environment for 60 minutes while breathing a 21% O2 balance N2 gas mix. After acclimation, the following gas mix protocol was followed:
Cycles were designated to be the periods of both normoxia and hypoxia. Each experiment consisted of 3 cycles (or repeated sets) of the HVR to a normoxic-hypoxic shift. The cycles were 30 minutes in duration to allow for serial sampling from baseline and all 4 WBP test chambers. Each sampling period was of 4 minutes duration and was in a varying order but was always preceded by a 4 minute baseline. The sampling periods were calculated to allow for equilibration of the gas mixture in the WBP chamber. Switching of the multiplexer (MUX) line sampler system was achieved through use of a user defined program. The gas mixtures were likewise switched automatically using a user defined custom mix program and the Sable Systems/Alicat Multi Flow Controller utility.
Analysis of data was performed in GraphPad Prism (v5) using embedded 1-way Analysis of Variance (ANOVA) followed by Dunnett's or Tukey's MCT post hoc testing where appropriate. Dual data sets were analyzed using the Student's t-test. Bartlett's Equal Variance tests were performed on all data sets, however failure of equal variance was not considered to impinge the validity of the test.
For `C#CCC(N)C(=O)O` (racemic) [PAG, dl-Propargylglycine], the “Increase in minute ventilation (VE) from normoxia to hypoxia” value was “not”.

The same test, now with this note: PAG 10, 30 and 100 mg/kg; both normoxic and hypoxic conditions; p<0.05.
In the case of `C#CCC(N)C(=O)O` (racemic) [PAG, dl-Propargylglycine], the VH2O entry is “significantly impacted”.

The same test, now with this note: PAG 10, 30 and 100 mg/kg; compared to saline, p<0.05.
For `C#CCC(N)C(=O)O` (racemic) [PAG, dl-Propargylglycine], the “VE at 10% FiO2” value is recorded as “significantly reduced”.

Still in this test, the particulars now being: PAG 10, 30 or 100 mg/kg IP; FiO2 21% to 10%.
Consider `C#CCC(N)C(=O)O` (racemic) [PAG, dl-Propargylglycine], for which the “Increase in minute ventilation (VE) from normoxia to hypoxia” value is on record as “blunted”.

The test is the same for the next values; noted with them: PAG 10 and 100 mg/kg; compared to saline, p<0.05.
For the compound `C#CCC(N)C(=O)O` (racemic) [PAG, dl-Propargylglycine], the “VE at an FiO2 of 21%” value was “reduced significantly”.

Still in this test, the particulars now being: PAG 30 and 100 mg/kg IP; p<0.05 versus vehicle.
Turning to `C#CCC(N)C(=O)O` (racemic) [PAG, dl-Propargylglycine], the “Slope of the hypoxic ventilatory response (ΔVE, HVR)” value is “significantly reduced”.

Still in this test, the particulars now being: PAG below a dose of 10 mg/kg.
On to `C#CCC(N)C(=O)O` (racemic) [PAG, dl-Propargylglycine], for which the “Slope of the hypoxic ventilatory response (ΔVE)” value was “no effect”.

The same test, now with this note: normoxic conditions; PAG 10 and 100 mg/kg; p<0.05.
Turning to `C#CCC(N)C(=O)O` (racemic) [PAG, dl-Propargylglycine], the VO2 result was “significantly decreased”.

The test is the same for the next values; noted with them: rat, in vivo.
In the case of `C#CCC(N)C(=O)O` (racemic) [PAG, dl-Propargylglycine], the VCO2 result is given as “no effect”.
